Assay results as given in patent US12709733B2, “Cell culture media” (Merck Patent GmbH, priority 2019, dated 2026).
Converted amounts (≈) assume the structure as drawn. Each block holds one molecule with its values, some of them ahead of it.

What was measured:
[1] = Maximum solubility in water at 25° C. (saturated solution, residual mass after infrared drying); format: physicochemical; settings: for solubility / Solubility 25° C. in g/kg (amino acid) / increase in solubility compared to the respective amino acid / Solubility 25° C. in g/kg (corresponding Lac-AA): 25° C.; for solubility: stated in description; for Solubility 25° C. in g/kg (amino acid) / increase in solubility compared to the respective amino acid / Solubility 25° C. in g/kg (corresponding Lac-AA): water; for Solubility 25° C. in g/kg (amino acid): native amino acid; for Solubility 25° C. in g/kg (corresponding Lac-AA): Lac-AA sodium salt; for maximum solubilities obtained in water: separate experiments comparing Leu, Leu sodium salt and lac-Leu sodium salt
Method: After sedimentation, the solution was dried using infrared (120° C., 120 min) and the residual mass was determined in g/kg.

[2] = Maximum solubility in Cellvento 4Feed depleted in Ile and Leu (turbidity measurement); format: physicochemical; settings: for solubility at 10 min: aqueous with cosolvent or surfactant or cyclodextrin, thermodynamic from solid, pH 7.0+/-0.2, 25° C., soluble = turbidity below 5 NTU; for solubility at 10 min / times more soluble than the native amino acid in Cellvento 4Feed depleted in Ile/Leu: 113 g/L feed; for times more soluble than the native amino acid in Cellvento 4Feed depleted in Ile/Leu: pH 7.0+/-0.2
Method: Increasing amounts of the Lac-Leu and Lac-Ile and salts thereof were added to a cell culture feed formulation (Cellvento® 4Feed) depleted in Ile and Leu. Similarly, increasing amounts of Ile and Leu were added to the same feed formulation as a control. The total concentration of this feed formulation was 113 g/L and the pH was 7.0+/−0.2. In small scale experiments, after each addition of either the amino acid or the Lac-AA, the feed was agitated for 10 mins and turbidity was measured. The experiments were performed at room temperature (25° C.).
A solution having a turbidity below 5 NTU is considered soluble.

[3] = Stability of Lac-AA in Cellvento 4Feed-Ile/Leu by LC-MS; format: physicochemical; settings: stored up to 3 months at 4° C. or RT protected from light
Method: To monitor the stability of Lac-AA in the complex feed mixture, a targeted quantitative LC-MS method was developed. Serial dilutions of Lac-Leu and Lac-Ile in Cellvento® 4Feed—Ile/Leu pH 7.0 were performed from 100 mM to 100 μM to determine the linearity of the method. A 200-fold dilution in water was performed prior to LC-MS analysis. The method was developed on a UHPLC (Vanquish, Thermo Fisher) coupled with an ESI-Q-ToF mass spectrometer (Impact II, Bruker Daltonics).
Briefly, 1 μL of sample were loaded in 99.9% buffer A (20 mM ammonium formate/0.1% FA) onto a XSelect HSS T3 column (2.1×150 mm, 3.5 μm, Waters) thermostated at 40° C. with a flowrate of 300 μL/min and eluted with a multistep gradient of buffer B (100% methanol) presented in Table 2.
LC-MS analyses were performed using the Impact II mass spectrometer equipped with an ESI source (Bruker Daltonics). MS acquisition was performed in negative mode with end plate offset and capillary voltages set at 500 and 3500 V, respectively. Nebulizer and dry gas (250° C.) were set at 1.4 bar and 9.0 L/min, respectively. MS spectra were acquired over the m/z range 20-1000 with a scan rate of 5 Hz. […]
Using the method previously developed, the stability of Lac-Ile and Lac-Leu in Cellvento® 4Feed-Ile/Leu was monitored in samples stored at 4° C. and RT protected from light for 3 months.

[4] = tested on: CHOK1GS suspension cell line expressing a human IgG1; assay: Fed-batch cell culture with Lac-AA replacing the amino acid in the feed, CHOK1GS clone; format: cell-based; settings: for concentration of Ile in the spent medium / concentration of Leu in the spent medium / effect on viable cell density (VCD) compared to positive control: 17-days fed-batch; for effect on viable cell density (VCD) compared to positive control: Lac-AA replacing amino acid in feed; for IgG titer compared to control: day 14; for increase of free lactate (area under the curve of lactate concentration): supernatant over the fed-batch process
Method: For cell culture experiments, a CHOK1GS suspension cell line expressing a human IgG1, was used. Cells were cultivated in quadruplicate in Cellvento® 4CHO medium (Merck Darmstadt, Germany) using 50 mL spin tubes with a starting culture volume of 30 mL and a seeding density of 2×10^5 cells/mL.
Incubation was carried out at 37° C., 5% CO2, 80% humidity and an agitation of 320 rpm. The Lac-AA were added in the Feed (Cellvento® 4Feed depleted in Ile and leu) instead of their respective amino acids. The pH of all the feeds was neutral (pH 7.0+/−0.2). The positive control contained the normal amino acids whereas the negative control contained the feed depleted in the respective amino acid and without addition of Lac-AA. Feeding was carried out at days 3, 5, 7, 10, 12 and 14 at the following v/v ratios (3, 3, 6, 3, 3 and 3%). Glucose was quantified daily and adjusted to 6 g/L using a 400 g/L glucose solution. The experiment was repeated at least 3 times.
The viable cell density (VCD) and viability were evaluated with a Vi-CELL XR (Beckman Coulter, Fullerton, CA). Metabolite concentrations were monitored using a Cedex Bio HT (Roche Diagnostics, Mannheim, Germany) based on spectrophotometric and turbidometric methods. Quantification of amino acids was carried out via UPLC after derivatization with the AccQ·TagUltra® reagent kit. Derivatization, chromatography and data analysis were carried out following the supplier recommendations (Waters, Milford, MA).

[5] = tested on: CHOK1GS suspension cell line expressing a human IgG1; assay: Quality of the antibody produced in the fed-batch process (glycosylation, aggregation/fragmentation, charge variants); format: cell-based; settings: IgG1 purified from supernatant
Method: The quality of the antibody produced in the control fed-batch process (with feed containing Ile and Leu) was compared to the quality of the antibody produced with feed depleted in either Leu and Ile and supplemented with either Lac-Leu or Lac-Ile.
The antibody was purified from the cell culture supernatant using protein A PhyTips® (PhyNexus Inc, San Jose, CA). Glycosylation patterns were analyzed by capillary gel electrophoresis with laser-induced fluorescence (CGE-LIF) after derivatization using the GlykoPrep®-plus Rapid N-Glycan Sample Preparation kit with 8-aminopyrene-1,3,6-trisulfonic acid trisodium (APTS) (Prozyme, Hayward, CA) according to the manufacturer's instructions. […] After a cleaning step to remove the remaining APTS, the relative amounts of glycans were determined using the Pharmaceutical Analysis System CESI8000 Plus (Sciex, Washington, USA) with a LIF detector (Ex: 488 nm, Em: 520 nm). […]
Antibody aggregation and fragmentation were measured using size exclusion chromatography on an Water Acquity UPLC system using a TSKgel SuperSW3000 column (Tosoh Bioscience). […] The sample concentration was adjusted to 1.0 mg/mL after the IgG purification using the storage buffer and the detection was performed using the absorbance at 214 nm. […]

[6] = tested on: CHODG44 clone producing an IgG1; assay: Fed-batch experiments with a CHODG44 clone; format: cell-based
Source text: Results (FIG. 16, 17, 18) indicate a similar VCD and IgG titer for the Lac-Leu and Lac-Ile conditions compared to the control positive control. […] The explanation for this difference in behavior between CHOK1GS cells and this DG44 cell line is currently unknown. The Leu and Ile concentrations in the spent media (FIG. 19 and) decreased during the first day of the FB culture to finally increase again after D7. This behavior is similar to the behavior seen for CHOK1GS cells and indicate a slow release process of the free AA from the derivatives.

SMILES: CC[C@H](C)[C@H](NC(=O)C(C)O)C(=O)O (stereo partly drawn) [Lac-Ile, N-lactoyl isoleucine]
increase in solubility compared to the respective amino acid [1]: 20 fold
turbidity at maximum tested concentration ([2]; 951 mM in Cellvento 4Feed depleted in Ile/Leu): below 5 NTU
times more soluble than the native amino acid in Cellvento 4Feed depleted in Ile/Leu [2]: at least 9 times
solubility at 10 min [2]: ≥ 951 mM
stability in Cellvento 4Feed-Ile/Leu [3]: stable
concentration of Ile in the spent medium [4]: decreased very rapidly until day 7 and increased again afterwards
concentration of Leu in the spent medium [4]: moderately decreased
effect on viable cell density (VCD) compared to positive control [4]: no effect on the peak VCD or overall VCD profile
IgG titer compared to control [4]: slight, but not significant higher titer
increase of free lactate (area under the curve of lactate concentration) [4]: 37%
glycosylation, high and low molecular weight species and charge variants of the IgG1 versus control condition [5]: no difference
IgG titer compared to positive control [6]: similar
VCD compared to positive control [6]: similar

SMILES: CC(C)C[C@H](NC(=O)C(C)O)C(=O)O (stereo partly drawn) [Lac-Leu, N-lactoyl leucine]
increase in solubility compared to the respective amino acid [1]: around 30 fold
times more soluble than the native amino acid in Cellvento 4Feed depleted in Ile/Leu [2]: 6.6 times
solubility at 10 min [2]: ~600 mM (≈ 122 mg/mL)
stability in Cellvento 4Feed-Ile/Leu [3]: stable
concentration of Ile in the spent medium [4]: decreased after day 7
concentration of Leu in the spent medium [4]: decreased very rapidly until day 7 and increased again afterwards
effect on viable cell density (VCD) compared to positive control [4]: positive effect on the duration of the plateau phase
viable cell density in plateau phase ([4]; day 10 to day 14): ~15 million cells/mL
IgG titer compared to control [4]: slight, but not significant higher titer
increase of free lactate (area under the curve of lactate concentration) [4]: 20%
glycosylation, high and low molecular weight species and charge variants of the IgG1 versus control condition [5]: no difference
IgG titer compared to positive control [6]: similar
VCD compared to positive control [6]: similar

SMILES: CC(O)C(=O)NC(Cc1ccccc1)C(=O)[O-].[Na+] (stereo not drawn) [Lac-Phe sodium salt]
Solubility 25° C. in g/kg (corresponding Lac-AA) [1]: 483.1 g/kg

SMILES: CC(O)C(=O)NC(Cc1ccc(O)cc1)C(=O)[O-].[Na+] (stereo not drawn) [Lac-Tyr sodium salt]
Solubility 25° C. in g/kg (corresponding Lac-AA) [1]: 101.9 g/kg

SMILES: N[C@@H](Cc1ccccc1)C(=O)O [Phenylalanine]
Solubility 25° C. in g/kg (amino acid) [1]: 26.0 g/kg

The next lines start with the values.

solubility [1]: 32.4 g/kg
Solubility 25° C. in g/kg (amino acid) [1]: 32.4 g/kg
solubility at 10 min [2]: ~105 mM (≈ 13.8 mg/mL)
SMILES: CC[C@H](C)[C@H](N)C(=O)O [Isoleucine]

maximum solubilities obtained in water [1]: 86.0 g/kg
SMILES: CC(C)C[C@H](N)C(=O)[O-].[Na+] [Leu sodium salt]

solubility [1]: about 22.1 g/kg
maximum solubilities obtained in water [1]: 22.1 g/kg
Solubility 25° C. in g/kg (amino acid) [1]: 22.1 g/kg
solubility at 10 min [2]: ~90 mM (≈ 11.8 mg/mL)
SMILES: CC(C)C[C@H](N)C(=O)O [Leucine]

Solubility 25° C. in g/kg (amino acid) [1]: 52.9 g/kg
SMILES: CSCC[C@H](N)C(=O)O [Methionine]

Solubility 25° C. in g/kg (amino acid) [1]: 57.8 g/kg
SMILES: CC(C)[C@H](N)C(=O)O [Valine]
